In ChEMBL document CHEMBL1152162, “Coagulanolide, a withanolide from Withania coagulans fruits and antihyperglycemic activity” (2008):

What was measured:
Format in all cases: functional
Mus musculus [1] = experiment: Antihyperglycemic activity in diabetic C57BL/KsJ-db/db mouse model assessed as decrease in low-density lipoprotein cholesterol at 50 mg/kg, po for 10 days relative to control; set-up: scale not given: the % may be the effect or the level left
Mus musculus [2] = experiment: Antihyperglycemic activity in po dosed diabetic C57BL/KsJ-db/db mouse model assessed as decrease in postprandial blood glucose level for 10 days; conditions: 240 h
Rattus norvegicus [3] = experiment: Antihyperglycemic activity in streptozotocin-induced diabetic Sprague-Dawley rat model assessed as glucose tolerance at 100 mg/kg, po administered 30 mins before sucrose-load
Mus musculus [4] = experiment: Antihyperglycemic activity in diabetic C57BL/KsJ-db/db mouse model assessed as decrease in very low-density lipoprotein cholesterol at 50 mg/kg, po for 10 days relative to control; set-up: scale not given: the % may be the effect or the level left
Mus musculus [5] = experiment: Antihyperglycemic activity in diabetic C57BL/KsJ-db/db mouse model assessed as decrease in postprandial blood glucose level at 50 mg/kg, po for 10 days relative to control; set-up: scale not given: the % may be the effect or the level left
Mus musculus [6] = experiment: Antihyperglycemic activity in diabetic C57BL/KsJ-db/db mouse model assessed as increase in high-density lipoprotein cholesterol at 50 mg/kg, po for 10 days relative to control
Mus musculus [7] = experiment: Antihyperglycemic activity in diabetic C57BL/KsJ-db/db mouse model assessed as decrease in plasma triglyceride level at 50 mg/kg, po for 10 days relative to control; set-up: scale not given: the % may be the effect or the level left
Mus musculus [8] = experiment: Antihyperglycemic activity in diabetic C57BL/KsJ-db/db mouse model assessed as improvement in glucose tolerance at 50 mg/kg, po for 10 days relative to control by OGTT
Rattus norvegicus [9] = experiment: Antihyperglycemic activity in Sprague-Dawley normoglycemic rat model assessed as glucose tolerance at 100 mg/kg, po administered 30 mins before sucrose-load
Mus musculus [10] = experiment: Antihyperglycemic activity in diabetic C57BL/KsJ-db/db mouse model assessed as decrease in blood glucose AUC at 50 mg/kg, po for 10 days relative to control; set-up: scale not given: the % may be the effect or the level left
Mus musculus [11] = experiment: Antihyperglycemic activity in diabetic C57BL/KsJ-db/db mouse model assessed as decrease in total cholesterol at 50 mg/kg, po for 10 days relative to control; set-up: scale not given: the % may be the effect or the level left

Row | Structure (SMILES) | Activity (Mus musculus [1]) | ED50 (Mus musculus [2]) | Activity (Rattus norvegicus [3]) | Activity (Mus musculus [4]) | Activity (Mus musculus [5]) | Activity (Mus musculus [6]) | Activity (Mus musculus [7]) | Activity (Mus musculus [8]) | Activity (Rattus norvegicus [9]) | Activity (Mus musculus [10]) | Activity (Mus musculus [11])
1 | CC1=C(C)C(=O)O[C@@H]([C@](C)(O)[C@]2(O)CC[C@@]3(O)[C@@H]4CC=C5C[C@@H](O[C@@H]6O[C@H](CO)[C@@H](O)[C@H](O)[C@H]6O)CC(=O)[C@]5(C)[C@H]4CC[C@]23C)C1 | 21.2% | 25 mg/kg | 23.3% | 15.6% | 22.7% | 24.7% | 14.7% | 44.1% | 29.8% | 40.5% | 25.7%
2 | CC1=C(C)C(=O)O[C@@H]([C@](C)(O)[C@]2(O)CC[C@@]3(O)[C@@H]4CC=C5C=CCC(=O)[C@]5(C)[C@H]4CC[C@]23C)C1 | – | – | 15.8% | – | – | – | – | – | 20.4% | – | –
3 | CC1=C(C)C(=O)O[C@@H]([C@](C)(O)[C@]2(O)C[C@H](O)[C@@]3(O)[C@@H]4CC=C5CC=CC(=O)[C@]5(C)[C@H]4CC[C@@]32C)C1 [COAGULANOLIDE] | – | – | 14.7% | – | – | – | – | – | 28.1% | – | –
4 | CC1=C(C)C(=O)O[C@@H]([C@]2(C)O[C@@]34CC[C@]2(O)[C@@]3(C)CC[C@H]2[C@H]4CC=C3CC=CC(=O)[C@@]32C)C1 [COAGULIN C] | – | – | 16.9% | – | – | – | – | – | 22.8% | – | –
5 | CC(C)OC(=O)C(C)(C)Oc1ccc(C(=O)c2ccc(Cl)cc2)cc1 [FENOFIBRATE] | 24.5% | – | – | 21.6% | – | 12.4% | 16.2% | – | – | – | 30.8%
6 | CN(C)C(=N)NC(=N)N [METFORMIN] | – | – | 17.1% | – | 18.6% | – | – | 24.8% | 26.4% | 24.8% | –
7 | CC1=C(C)C(=O)O[C@@H]([C@](C)(O)[C@]2(O)CC[C@@]3(O)[C@@H]4CC=C5CC=CC(=O)[C@]5(C)[C@H]4CC[C@]23C)C1 [WITHANOLIDE F] | – | – | 18.2% | – | – | – | – | – | 24.9% | – | –
